How the values were obtained:
Assay type in all cases: in vivo
Setaria viridis = test: Test Example 5: herbicidal effect by foliage application, plastic box (symbol G); details: 320 g/ha, 3 weeks after application
From the text: (§1) Herbicidal Effect Test by Foliage Application
(§2) Sterilized diluvial soil was placed in a plastic box having a length of 21 cm, a width of 13 cm, and a depth of 7 cm. Each of the seeds of Digitaria ciliaris, Setaria viridis, Echinochloa crus-galli var. crus-galli, Avena fatua, Alopecurus myosuroides, Lolium multiflorum Lam., Apera spica-venti, Abutilon theophrasti, Amaranthus retroflexus, Chenopodium album, Stellaria media, Galium spurium, Veronica persica, corn, soybean, rice plant, wheat, beet, and rapeseed was sowed in a spot-like manner and was covered with the soil of a thickness of about 1.5 cm. Thereafter, the plants were grown in the greenhouse of 25° C. to 30° C. After the plants were grown for 14 days, the emulsion agent of the compound of the present invention prepared in accordance with Formulation Example 2 was diluted with water so as to be a predetermined herbicide amount and the diluted emulsion agent was uniformly applied to a foliage part with a small-size spray. 3 weeks later from the herbicide application, the effect to each plant was investigated in accordance with the criteria of Test Example 1.

[1] = tested on: directly sowed rice plant; test: Test Example 3: effect on crop by foliage application, Wagner pot (symbol b); details: application herbicide amount 320 g/ha
Protocol: as §1
After alluvial soil was placed into 1/10000 are of Wagner pot, water was poured and mixed to form a submerged condition having a water depth of 0.1 cm to 0.5 cm. Seeds of Echinochloa crus-galli var. crus-galli, Leptochloa chinensis, Cyperus difformis, and rice were sowed and the pot was placed in the greenhouse of 25° C. to 30° C. to grow the plants.

Cyperus difformis = test: Test Example 3: herbicidal effect by foliage application, Wagner pot (symbol E); details: application herbicide amount 320 g/ha
Protocol: as §1
(§3) After alluvial soil was placed into 1/10000 are of Wagner pot, water was poured and mixed to form a submerged condition having a water depth of 0.1 cm to 0.5 cm. Seeds of Echinochloa crus-galli var. crus-galli, Leptochloa chinensis, Cyperus difformis, and rice were sowed and the pot was placed in the greenhouse of 25° C. to 30° C. to grow the plants. After the plants were grown for 14 days, the emulsion agent of the compound of the present invention prepared in accordance with Formulation Example 2 was diluted with water so as to be a predetermined herbicide amount and the diluted emulsion agent was uniformly applied to a foliage part with a small-size spray. 3 weeks later from the herbicide application, the effect to each plant was investigated in accordance with the criteria of Test Example 1.

Abutilon theophrasti = test: Test Example 5: herbicidal effect by foliage application, plastic box (symbol M); details: 320 g/ha, 3 weeks after application
From the text: as §1, §2

Amaranthus retroflexus = test: Test Example 5: herbicidal effect by foliage application, plastic box (symbol N); details: 320 g/ha, 3 weeks after application
From the text: as §1, §2

Avena fatua = test: Test Example 5: herbicidal effect by foliage application, plastic box (symbol I); details: 320 g/ha, 3 weeks after application
From the text: as §1, §2

wheat = test: Test Example 5: effect on crop by foliage application, plastic box (symbol e); details: 320 g/ha, 3 weeks after application
From the text: as §1
(§4) Sterilized diluvial soil was placed in a plastic box having a length of 21 cm, a width of 13 cm, and a depth of 7 cm. Each of the seeds of Digitaria ciliaris, Setaria viridis, Echinochloa crus-galli var. crus-galli, Avena fatua, Alopecurus myosuroides, Lolium multiflorum Lam., Apera spica-venti, Abutilon theophrasti, Amaranthus retroflexus, Chenopodium album, Stellaria media, Galium spurium, Veronica persica, corn, soybean, rice plant, wheat, beet, and rapeseed was sowed in a spot-like manner and was covered with the soil of a thickness of about 1.5 cm. Thereafter, the plants were grown in the greenhouse of 25° C. to 30° C.

Leptochloa chinensis = test: Test Example 3: herbicidal effect by foliage application, Wagner pot (symbol D); details: application herbicide amount 320 g/ha
Protocol: as §1, §3

Veronica persica = test: Test Example 5: herbicidal effect by foliage application, plastic box (symbol R); details: 320 g/ha, 3 weeks after application
From the text: as §1, §2

rice plant = test: Test Example 5: effect on crop by foliage application, plastic box (symbol b); details: 320 g/ha, 3 weeks after application
From the text: as §1, §4

[2] = tested on: Echinochloa crus-galli var. crus-galli; test: Test Example 5: herbicidal effect by foliage application, plastic box (symbol H); details: 320 g/ha, 3 weeks after application
From the text: as §1, §2

Digitaria ciliaris = test: Test Example 5: herbicidal effect by foliage application, plastic box (symbol F); details: 320 g/ha, 3 weeks after application
From the text: as §1, §2

Alopecurus myosuroides = test: Test Example 5: herbicidal effect by foliage application, plastic box (symbol J); details: 320 g/ha, 3 weeks after application
From the text: as §1, §2

Chenopodium album = test: Test Example 5: herbicidal effect by foliage application, plastic box (symbol O); details: 320 g/ha, 3 weeks after application
From the text: as §1, §2

Stellaria media = test: Test Example 5: herbicidal effect by foliage application, plastic box (symbol P); details: 320 g/ha, 3 weeks after application
From the text: as §1, §2

corn = test: Test Example 5: effect on crop by foliage application, plastic box (symbol c); details: 320 g/ha, 3 weeks after application
From the text: as §1, §4

[3] = tested on: Echinochloa crus-galli var. crus-galli; test: Test Example 3: herbicidal effect by foliage application, Wagner pot (symbol H); details: application herbicide amount 320 g/ha
Protocol: as §1, §3

soybean = test: Test Example 5: effect on crop by foliage application, plastic box (symbol d); details: 320 g/ha, 3 weeks after application
From the text: as §1, §4

beet = test: Test Example 5: effect on crop by foliage application, plastic box (symbol f); details: 320 g/ha, 3 weeks after application
From the text: as §1, §4

rapeseed = test: Test Example 5: effect on crop by foliage application, plastic box (symbol g); details: 320 g/ha, 3 weeks after application
From the text: as §1, §4

Apera spica-venti = test: Test Example 5: herbicidal effect by foliage application, plastic box (symbol L); details: 320 g/ha, 3 weeks after application
From the text: as §1, §2

[4] = tested on: Echinochloa oryzacola Vasing.; test: Test Example 2: herbicidal activity, application during weed generation in submerged conditions (symbol A); details: Table 23; application herbicide amount 320 g/ha; grade 0-5 by criteria of Test Example 1
Protocol: (§5) Herbicidal Activity Test by Application During Weed Generation in Submerged Conditions
(§6) After alluvial soil was placed into 1/10000 are of Wagner pot, water was poured and mixed to form a submerged condition having a water depth of 4 cm. Seeds of Echinochloa oryzacola Vasing., Scirpus juncoides, and Monochoria vaginalis were sowed in a mixed manner in the above pot and the pot was placed in the greenhouse of 25° C. to 30° C. to grow the plants. When Echinochloa oryzacola Vasing., Scirpus juncoides, and Monochoria vaginalis were grown to one leaf stage to two leaf stage, the emulsion agent of the compound of the present invention prepared in accordance with Formulation Example 2 was diluted with water so as to be a predetermined herbicide amount and the diluted emulsion agent was applied to the surface of the water. 3 weeks later from the herbicide application, the effect to each plant was investigated in accordance with the criteria of Test Example 1.

Monochoria vaginalis = test: Test Example 2: herbicidal activity, application during weed generation in submerged conditions (symbol C); details: Table 23; application herbicide amount 320 g/ha; grade 0-5 by criteria of Test Example 1
Protocol: as §5, §6

Scirpus juncoides [5] = test: Test Example 2: herbicidal activity, application during weed generation in submerged conditions (symbol B); details: Table 23; application herbicide amount 320 g/ha; grade 0-5 by criteria of Test Example 1
Protocol: as §5, §6

transplanted rice plant = test: Test Example 1: effect on crop, application before weed generation in submerged conditions (symbol a); details: application herbicide amount 320 g/ha
Protocol: (§7) Herbicidal Activity Test by Application Before Weed Generation in Submerged Conditions
After alluvial soil was placed into 1/10000 are of Wagner pot, water was poured and mixed to form a submerged condition having a water depth of 4 cm. Seeds of Echinochloa oryzacola Vasing., Scirpus juncoides, and Monochoria vaginalis were sowed in a mixed manner in the above pot and thereafter 2.5 leaf stage rice plant seedlings were transplanted thereto. […] The pot was placed in a greenhouse of 25° C. to 30° C. to grow plant. 3 weeks later from the herbicide application, the effect to each plant was investigated in accordance with the following criteria.
(§8) 5 Herbicidal ratio of 90% or more (almost completely withered)
(§9) 4 Herbicidal ratio of 70% or higher and lower than 90%
(§10) 3 Herbicidal ratio of 40% or higher and lower than 70%
(§11) 2 Herbicidal ratio of 20% or higher and lower than 40%
(§12) 1 Herbicidal ratio of 5% or higher and lower than 20%
(§13) 0 Herbicidal ratio of 5% or lower (almost no effect)

Scirpus juncoides [6] = test: Test Example 1: herbicidal activity, application before weed generation in submerged conditions (symbol B); details: application herbicide amount 320 g/ha
From the text: as §7
as §6, with “thereafter 2.5” for “the pot was placed in the greenhouse of 25° C. to 30° C. to grow the plants. When Echinochloa oryzacola Vasing., Scirpus juncoides, and Monochoria vaginalis were grown to one”, “rice plant seedlings were transplanted thereto. On the day of sowing seeds,” for “to two leaf stage,”, “water. The pot was placed in a greenhouse of 25° C. to 30° C. to grow plant.” for “water.”, “following criteria.” for “criteria of Test Example 1.”
as §8, §9, §10, §11, §12, §13

[7] = tested on: Echinochloa oryzacola Vasing.; test: Test Example 1: herbicidal activity, application before weed generation in submerged conditions (symbol A); details: application herbicide amount 320 g/ha
From the text: as §7
as §6, with “thereafter 2.5” for “the pot was placed in the greenhouse of 25° C. to 30° C. to grow the plants. When Echinochloa oryzacola Vasing., Scirpus juncoides, and Monochoria vaginalis were grown to one”, “rice plant seedlings were transplanted thereto. On the day of sowing seeds,” for “to two leaf stage,”, “water. The pot was placed in a greenhouse of 25° C. to 30° C. to grow plant.” for “water.”, “following criteria.” for “criteria of Test Example 1.”
as §8, §9, §10, §11, §12, §13

## CON=C(C)CC1CC(O)=C(c2c(C)cc(NC(=O)OC(C)(C)C)cc2C)C1=O (mixture of isomers) [6-033]
Setaria viridis
  G: Setaria viridis, herbicidal effect grade: 0 (Herbicidal ratio of 5% or lower (almost no effect))
[1]
  effect on crop b (directly sowed rice plant), grade 0-5: 0 (Herbicidal ratio of 5% or lower (almost no effect))
Cyperus difformis
  herbicidal effect on E, grade 0-5: 3 (Herbicidal ratio of 40% or higher and lower than 70%)
Abutilon theophrasti
  M: Abutilon theophrasti, herbicidal effect grade: 0 (Herbicidal ratio of 5% or lower (almost no effect))
Amaranthus retroflexus
  N: Amaranthus retroflexus, herbicidal effect grade: 0 (Herbicidal ratio of 5% or lower (almost no effect))
Avena fatua
  I: Avena fatua, herbicidal effect grade: 3 (Herbicidal ratio of 40% or higher and lower than 70%)
wheat
  e: wheat, effect on crop grade: 0 (Herbicidal ratio of 5% or lower (almost no effect))
Leptochloa chinensis
  herbicidal effect on D (Leptochloa chinensis), grade 0-5: 0 (Herbicidal ratio of 5% or lower (almost no effect))
Veronica persica
  R: Veronica persica, herbicidal effect grade: 0 (Herbicidal ratio of 5% or lower (almost no effect))
Rice plant
  b: directly sowed rice plant, effect on crop grade: 3 (Herbicidal ratio of 40% or higher and lower than 70%)
[2]
  H: Echinochloa crus-galli var. crus-galli, herbicidal effect grade: 1 (Herbicidal ratio of 5% or higher and lower than 20%)
Digitaria ciliaris
  F: Digitaria ciliaris, herbicidal effect grade: 0 (Herbicidal ratio of 5% or lower (almost no effect))
Alopecurus myosuroides
  J: Alopecurus myosuroides, herbicidal effect grade: 0 (Herbicidal ratio of 5% or lower (almost no effect))
Chenopodium album
  O: Chenopodium album, herbicidal effect grade: 0 (Herbicidal ratio of 5% or lower (almost no effect))
Stellaria media
  P: Stellaria media, herbicidal effect grade: 0 (Herbicidal ratio of 5% or lower (almost no effect))
corn
  c: corn, effect on crop grade: 3 (Herbicidal ratio of 40% or higher and lower than 70%)
[3]
  herbicidal effect on H (Echinochloa crus-galli var. crus-galli), grade 0-5: 0 (Herbicidal ratio of 5% or lower (almost no effect))
soybean
  d: soybean, effect on crop grade: 0 (Herbicidal ratio of 5% or lower (almost no effect))
beet
  f: beet, effect on crop grade: 0 (Herbicidal ratio of 5% or lower (almost no effect))
rapeseed
  g: rapeseed, effect on crop grade: 1 (Herbicidal ratio of 5% or higher and lower than 20%)
Apera spica-venti
  L: Apera spica-venti, herbicidal effect grade: 0 (Herbicidal ratio of 5% or lower (almost no effect))

## CON=C(C)CC1CC(O)=C(c2c(C)cc(SC)cc2C)C1=O (stereo not shown) [6-024]
[1]
  effect on crop b (directly sowed rice plant), grade 0-5: 3 (Herbicidal ratio of 40% or higher and lower than 70%)
Cyperus difformis
  herbicidal effect on E, grade 0-5: 3 (Herbicidal ratio of 40% or higher and lower than 70%)
Leptochloa chinensis
  herbicidal effect on D (Leptochloa chinensis), grade 0-5: 2 (Herbicidal ratio of 20% or higher and lower than 40%)
[4]
  Herbicidal effect grade, A: Echinochloa oryzacola Vasing.: 1 (Herbicidal ratio of 5% or higher and lower than 20%)
Monochoria vaginalis
  Herbicidal effect grade, C: Monochoria vaginalis: 0 (Herbicidal ratio of 5% or lower (almost no effect))
Scirpus juncoides [5]
  Herbicidal effect grade, B: Scirpus juncoides: 0 (Herbicidal ratio of 5% or lower (almost no effect))
Transplanted rice plant
  Effect grade on crop, a: transplanted rice plant: 3 (Herbicidal ratio of 40% or higher and lower than 70%)
Scirpus juncoides [6]
  Herbicidal effect grade, B: Scirpus juncoides: 2 (Herbicidal ratio of 20% or higher and lower than 40%)
[3]
  herbicidal effect on H (Echinochloa crus-galli var. crus-galli), grade 0-5: 3 (Herbicidal ratio of 40% or higher and lower than 70%)
[7]
  Herbicidal effect grade, A: Echinochloa oryzacola Vasing.: 3 (Herbicidal ratio of 40% or higher and lower than 70%)
